Source: the NIST ThermoML archive (doi:10.1016/j.jct.2018.04.018)
“And” between values parts separate entries of the source, which are not always exact repeats. Equal values may be shown once.

Conditions: 101.33 kPa, Liquid; for mass density: Vibrating tube method; for speed of sound: Single path-length method

CCCCCCCC[n+]1ccn(C)c1.F[P-](F)(F)(F)(F)F [1-octyl-3-methylimidazolium hexafluorophosphate]
Conditions | viscosity
269.96 K, Cone and plate viscometry | 8278 mPa·s
270.27 K, Cone and plate viscometry | 7970.4 mPa·s
270.37 K, Cone and plate viscometry | 7819.7 mPa·s
270.91 K, Cone and plate viscometry | 7509 mPa·s
271.66 K, Cone and plate viscometry | 6771 mPa·s
272.33 K, Cone and plate viscometry | 6420 mPa·s
272.44 K, Cone and plate viscometry | 6269.6 mPa·s
273.24 K, Cone and plate viscometry | 5792.5 mPa·s
274.02 K, Cone and plate viscometry | 5350.3 mPa·s
274.63 K, Cone and plate viscometry | 4992.4 mPa·s
274.8 K, Cone and plate viscometry | 4951.8 mPa·s
274.81 K, Cone and plate viscometry | 4903 mPa·s
274.88 K, Cone and plate viscometry | 4879 mPa·s
275.31 K, Cone and plate viscometry | 4651.9 mPa·s
275.44 K, Cone and plate viscometry | 4635.1 mPa·s
275.56 K, Cone and plate viscometry | 4593.6 mPa·s
276.14 K, Cone and plate viscometry | 4334 mPa·s
276.34 K, Cone and plate viscometry | 4268.2 mPa·s
276.47 K, Cone and plate viscometry | 4216.3 mPa·s
276.9 K, Cone and plate viscometry | 4053 mPa·s
277.09 K, Cone and plate viscometry | 3957.1 mPa·s
277.68 K, Cone and plate viscometry | 3777 mPa·s
277.76 K, Cone and plate viscometry | 3737 mPa·s
277.85 K, Cone and plate viscometry | 3693.3 mPa·s
278.15 K, Concentric cylinders viscometry | 3543 mPa·s
278.46 K, Cone and plate viscometry | 3522.8 mPa·s
278.6 K, Cone and plate viscometry | 3439.8 mPa·s
279.19 K, Cone and plate viscometry | 3241 mPa·s
279.24 K, Cone and plate viscometry | 3279.4 mPa·s
279.34 K, Cone and plate viscometry | 3221.2 mPa·s
280.01 K, Cone and plate viscometry | 3050.1 mPa·s
280.09 K, Cone and plate viscometry | 3002.8 mPa·s
280.77 K, Cone and plate viscometry | 2845.3 mPa·s
280.78 K, Cone and plate viscometry | 2866 mPa·s
280.84 K, Cone and plate viscometry | 2803.8 mPa·s
281.53 K, Cone and plate viscometry | 2656.6 mPa·s
281.59 K, Cone and plate viscometry | 2620.4 mPa·s
282.29 K, Cone and plate viscometry | 2486.9 mPa·s
282.33 K, Cone and plate viscometry | 2458 mPa·s
282.53 K, Cone and plate viscometry | 2412.6 mPa·s
283.04 K, Cone and plate viscometry | 2331.3 mPa·s
283.08 K, Cone and plate viscometry | 2299.1 mPa·s
283.15 K, Concentric cylinders viscometry | 2263.1 mPa·s
283.79 K, Cone and plate viscometry | 2174 mPa·s
283.83 K, Cone and plate viscometry | 2154.4 mPa·s
284.54 K, Cone and plate viscometry | 2037.4 mPa·s
284.55 K, Cone and plate viscometry | 2001 mPa·s
284.58 K, Cone and plate viscometry | 2017.2 mPa·s
285.28 K, Cone and plate viscometry | 1916 mPa·s
285.32 K, Cone and plate viscometry | 1893.2 mPa·s
286.03 K, Cone and plate viscometry | 1799.7 mPa·s
286.06 K, Cone and plate viscometry | 1779.6 mPa·s
286.78 K, Cone and plate viscometry | 1697.1 mPa·s
286.8 K, Cone and plate viscometry | 1672.4 mPa·s
287.52 K, Cone and plate viscometry | 1594.4 mPa·s
287.55 K, Cone and plate viscometry | 1572.8 mPa·s
288.15 K, Concentric cylinders viscometry | 1475.1 mPa·s
288.27 K, Cone and plate viscometry | 1496.8 mPa·s
288.29 K, Cone and plate viscometry | 1479.3 mPa·s
289.02 K, Cone and plate viscometry | 1407.5 mPa·s
289.03 K, Cone and plate viscometry | 1391.9 mPa·s
289.76 K, Cone and plate viscometry | 1327.8 mPa·s
289.78 K, Cone and plate viscometry | 1313.9 mPa·s
290.5 K, Cone and plate viscometry | 1253.5 mPa·s
290.52 K, Cone and plate viscometry | 1241 mPa·s
291.24 K, Cone and plate viscometry | 1183.2 mPa·s
291.27 K, Cone and plate viscometry | 1168.4 mPa·s
291.98 K, Cone and plate viscometry | 1115.8 mPa·s
292 K, Cone and plate viscometry | 1101.8 mPa·s
292.73 K, Cone and plate viscometry | 1053.3 mPa·s
292.75 K, Cone and plate viscometry | 1040.1 mPa·s
293.15 K, Concentric cylinders viscometry | 1001.1 mPa·s
293.48 K, Cone and plate viscometry | 994.4 mPa·s
293.49 K, Cone and plate viscometry | 984.3 mPa·s
294.22 K, Cone and plate viscometry | 932.9 mPa·s
294.25 K, Cone and plate viscometry | 929.4 mPa·s
294.96 K, Cone and plate viscometry | 882.6 mPa·s
295.02 K, Cone and plate viscometry | 879.2 mPa·s
295.71 K, Cone and plate viscometry | 844.7 mPa·s
295.79 K, Cone and plate viscometry | 829.3 mPa·s
296.47 K, Cone and plate viscometry | 798 mPa·s
296.57 K, Cone and plate viscometry | 784.2 mPa·s
297.2 K, Cone and plate viscometry | 757 mPa·s
297.33 K, Cone and plate viscometry | 741.5 mPa·s
297.94 K, Cone and plate viscometry | 718 mPa·s
298.08 K, Cone and plate viscometry | 705.1 mPa·s
298.15 K, Concentric cylinders viscometry | 691.2 mPa·s
298.69 K, Cone and plate viscometry | 682.3 mPa·s
298.82 K, Cone and plate viscometry | 668.2 mPa·s
299.43 K, Cone and plate viscometry | 647.5 mPa·s
299.55 K, Cone and plate viscometry | 632.9 mPa·s
300.16 K, Cone and plate viscometry | 614.6 mPa·s
300.28 K, Cone and plate viscometry | 601.2 mPa·s
300.91 K, Cone and plate viscometry | 584.1 mPa·s
301 K, Cone and plate viscometry | 572.3 mPa·s
301.65 K, Cone and plate viscometry | 555.5 mPa·s
301.73 K, Cone and plate viscometry | 545 mPa·s
302.39 K, Cone and plate viscometry | 528.9 mPa·s
302.46 K, Cone and plate viscometry | 519.8 mPa·s
303.14 K, Cone and plate viscometry | 502.9 mPa·s
303.15 K, Concentric cylinders viscometry | 490 mPa·s
303.19 K, Cone and plate viscometry | 494.3 mPa·s
303.88 K, Cone and plate viscometry | 478.8 mPa·s
303.92 K, Cone and plate viscometry | 470.6 mPa·s
304.62 K, Cone and plate viscometry | 450.9 mPa·s
304.65 K, Cone and plate viscometry | 449.1 mPa·s
305.37 K, Cone and plate viscometry | 434.2 mPa·s
305.39 K, Cone and plate viscometry | 429.1 mPa·s
306.11 K, Cone and plate viscometry | 414.9 mPa·s
306.13 K, Cone and plate viscometry | 409.9 mPa·s
306.85 K, Cone and plate viscometry | 396 mPa·s
306.86 K, Cone and plate viscometry | 390.9 mPa·s
307.59 K, Cone and plate viscometry | 378 mPa·s
307.6 K, Cone and plate viscometry | 372.5 mPa·s
308.34 K, Cone and plate viscometry | 361 mPa·s
308.35 K, Cone and plate viscometry | 356 mPa·s
309.09 K, Cone and plate viscometry | 339.9 mPa·s and 344.9 mPa·s
309.82 K, Cone and plate viscometry | 329.8 mPa·s
309.84 K, Cone and plate viscometry | 325.7 mPa·s
310.57 K, Cone and plate viscometry | 311.5 mPa·s and 315.9 mPa·s
311.31 K, Cone and plate viscometry | 301.8 mPa·s
311.32 K, Cone and plate viscometry | 297.7 mPa·s
312.05 K, Cone and plate viscometry | 288.8 mPa·s
312.06 K, Cone and plate viscometry | 284.9 mPa·s
312.8 K, Cone and plate viscometry | 273.3 mPa·s and 275.7 mPa·s
313.15 K, Concentric cylinders viscometry | 266.1 mPa·s
313.54 K, Cone and plate viscometry | 264.8 mPa·s
313.55 K, Cone and plate viscometry | 262 mPa·s
314.28 K, Cone and plate viscometry | 254 mPa·s
314.29 K, Cone and plate viscometry | 251.2 mPa·s
315.03 K, Cone and plate viscometry | 240.6 mPa·s and 243.2 mPa·s
315.77 K, Cone and plate viscometry | 230.6 mPa·s and 233 mPa·s
316.51 K, Cone and plate viscometry | 221.6 mPa·s and 223.5 mPa·s
317.25 K, Cone and plate viscometry | 213.6 mPa·s
317.26 K, Cone and plate viscometry | 214.9 mPa·s
317.99 K, Cone and plate viscometry | 206.5 mPa·s
318 K, Cone and plate viscometry | 204 mPa·s
318.74 K, Cone and plate viscometry | 196.1 mPa·s and 198.4 mPa·s
319.48 K, Cone and plate viscometry | 188.3 mPa·s and 190.7 mPa·s
320.22 K, Cone and plate viscometry | 181 mPa·s and 183.1 mPa·s
320.96 K, Cone and plate viscometry | 174.4 mPa·s
320.97 K, Cone and plate viscometry | 176 mPa·s
321.71 K, Cone and plate viscometry | 168.1 mPa·s
321.72 K, Cone and plate viscometry | 169.5 mPa·s
322.44 K, Cone and plate viscometry | 163.6 mPa·s
322.46 K, Cone and plate viscometry | 161.6 mPa·s
323.19 K, Cone and plate viscometry | 155.4 mPa·s and 157.1 mPa·s
323.93 K, Cone and plate viscometry | 149.8 mPa·s
323.94 K, Cone and plate viscometry | 151.1 mPa·s
324.68 K, Cone and plate viscometry | 144.3 mPa·s
324.69 K, Cone and plate viscometry | 145.6 mPa·s
325.43 K, Cone and plate viscometry | 139.3 mPa·s
325.44 K, Cone and plate viscometry | 140.5 mPa·s
326.17 K, Cone and plate viscometry | 135.3 mPa·s
326.18 K, Cone and plate viscometry | 135.7 mPa·s
326.91 K, Cone and plate viscometry | 129.5 mPa·s
326.92 K, Cone and plate viscometry | 130.8 mPa·s
327.65 K, Cone and plate viscometry | 124.9 mPa·s
327.67 K, Cone and plate viscometry | 126 mPa·s
328.39 K, Cone and plate viscometry | 120.8 mPa·s
328.46 K, Cone and plate viscometry | 121.6 mPa·s
329.14 K, Cone and plate viscometry | 116.8 mPa·s and 117.6 mPa·s
329.88 K, Cone and plate viscometry | 112.8 mPa·s and 113.7 mPa·s
330.62 K, Cone and plate viscometry | 108.9 mPa·s
330.63 K, Cone and plate viscometry | 109.9 mPa·s
331.36 K, Cone and plate viscometry | 105.1 mPa·s
331.37 K, Cone and plate viscometry | 106 mPa·s
332.1 K, Cone and plate viscometry | 102.6 mPa·s

Conditions | mass density | speed of sound [m/s]
278.15 K | 1252.41 kg/m3 and 1252.42 kg/m3 | –
278.16 K | 1252.41 kg/m3 | –
283.15 K | 1248.4 kg/m3 [middle of 4 runs] | 1460.8
288.15 K | 1244.12 kg/m3 | –
293.15 K | 1240.16 kg/m3 and 1240.34 kg/m3 and 1240.35 kg/m3 | 1425.5
293.17 K | 1240.24 kg/m3 | –
298.15 K | 1236.18 kg/m3 | –
303.15 K | 1232.68 kg/m3 and 1232.44 kg/m3 and 1232.4 kg/m3 | 1394.9
303.16 K | 1232.32 kg/m3 | –
313.15 K | 1224.86 kg/m3 and 1224.73 kg/m3 and 1224.76 kg/m3 | –
313.16 K | 1224.63 kg/m3 | 1367
323.15 K | 1217.09 kg/m3 and 1217.15 kg/m3 | 1342
323.16 K | 1217.34 kg/m3 | –
